Data set [1] can be described thus: Solubility of dye (Na salt) in water. Type of data set: physicochemical. The method, then:
Evaluation Method of Solubility of Dye
A Na salt (2 g) of the resulting dye was dissolved in water (10 g), and the dye solution was filtered and concentrated/dried to determine a solubility (g of dye/100 g of water) of the dye.

The test system of data set [2] is strain TA98. Nature of the data set: AMES test (reverse mutagenicity test), strain TA98, with and without S-9. Type of data set: cell-based. Particulars: TA98, with and without S9, 20 to 5000 μg/plate. The protocol:
Regarding specimen solutions containing the trisazo compounds (dyes) of the present invention obtained in Examples 1 to 9 and dyes of Comparative Examples 1 to 3, respectively, the total number of the mutant colony was determined using the strain TA98. When the resulting magnification is not more than 2, it is evaluated as "negative". On the other hand, when the resulting magnification is not less than 2, it is evaluated as "positive".
In Table 1, the modification in case that no drug-metabolizing active enzyme S-9 is added is shown in the column "-" and the modification in case that a drug-metabolizing active enzyme S-9 is added is shown in the column "+".

The conditions of data set [3]: background statement on known dyes; cited from earlier work.
A short description of data set [4]: AMES test / mutagenicity as stated in general text. Particulars: dye intermediate.
The nature of data set [5]: Stability of tetrazonium salt. The format is physicochemical.

Where a name gives a salt, the structure may show the parent alone.

On to `Cc1cc(-c2ccc(N=Nc3c(S(=O)(=O)[O-])cc4cc(S(=O)(=O)[O-])c(N=Nc5ccccc5)c(O)c4c3N)c(C)c2)ccc1N=Nc1ccc(N)cc1N.[Na+].[Na+]` [Comparative Example 2, C.I. Direct Black 154, reference compound], for which, in data set [1], the “Solubility Dye(g)/water (100 g)” value is reported as 20 g of dye/100 g of water and the “Solubility Evaluation” value is “.circleincircle. (solubility is not less than 15)”. Besides, the “AMES Evaluation” value in data set [2] was “Positive (when the resulting magnification is not less than 2, it is evaluated as "positive")”. In data set [3], the “results of AMES test” value is listed as “false positive or positive”.

Turning to `Nc1ccc(C2(c3ccc(N)cc3)CCCCC2)cc1` [1,1-bis(4-aminophenyl)cyclohexane], the mutagenicity entry in data set [4] is listed as “negative”.

`Nc1ccc(N=Nc2ccc(N=Nc3c(S(=O)(=O)[O-])cc4cc(S(=O)(=O)[O-])c(N=Nc5ccc(N=Nc6ccc(N)cc6N)cc5)c(O)c4c3N)cc2)c(N)c1.[Na+].[Na+]` [Comparative Example 1, C.I. Direct Black 19, reference compound]: in data set [1], the “Solubility Dye(g)/water (100 g)” value was 20 g of dye/100 g of water and the “Solubility Evaluation” value is given as “.circleincircle. (solubility is not less than 15)”. For the same compound, the “AMES Evaluation” value in data set [2] is “Positive (when the resulting magnification is not less than 2, it is evaluated as "positive")”. Also, the “results of AMES test” value in data set [3] is “false positive or positive”.

Take `N#[N+]c1ccc(C2(c3ccc([N+]#N)cc3)CCCCC2)cc1` [tetrazonium salt, tetrazonium salt of 1,1-bis(4-aminophenyl)cyclohexane]: the “stability of tetrazonium salt” value in data set [5] is recorded as “comparatively stable”.

These data come from patent US5486601A, “Trisazo dye, and aqueous ink composition containing the same” (priority 1993, dated 1996).
